# Activity calls are given as the source filed them. No cut-off for these calls is given here.
# How the values were obtained:
# [1] = test system: Rattus norvegicus; experiment: Antiarthritic activity in Mycobacterium tuberculosis H37R-induced female Lewis rat model of arthritis at 1 mg/kg, po administered twice daily for 15 days starting from day 13 after adjuvant administration; format: functional, organism-based; conditions: time 15.0 day
# [2] = Clearance in male Beagle dog at 1 mg/kg, iv measured after 24 hrs by LC-MS/MS analysis; format: ADME, organism-based, Canis lupus familiaris; conditions: in vivo
# [3] = AUClast in male Beagle dog at 1 mg/kg, iv measured after 24 hrs by LC-MS/MS analysis; format: ADME, organism-based, Canis lupus familiaris; conditions: in vivo
# [4] = biological target: T1, Cytochrome P450 1A2 (Homo sapiens, UniProt P05177); experiment: Inhibition of CYP1A2 in human liver microsomes using phenacetin as substrate in presence of NADP by LC-MS/MS analysis; format: ADME, Microsome
# T1 sequence (P05177 whole entry): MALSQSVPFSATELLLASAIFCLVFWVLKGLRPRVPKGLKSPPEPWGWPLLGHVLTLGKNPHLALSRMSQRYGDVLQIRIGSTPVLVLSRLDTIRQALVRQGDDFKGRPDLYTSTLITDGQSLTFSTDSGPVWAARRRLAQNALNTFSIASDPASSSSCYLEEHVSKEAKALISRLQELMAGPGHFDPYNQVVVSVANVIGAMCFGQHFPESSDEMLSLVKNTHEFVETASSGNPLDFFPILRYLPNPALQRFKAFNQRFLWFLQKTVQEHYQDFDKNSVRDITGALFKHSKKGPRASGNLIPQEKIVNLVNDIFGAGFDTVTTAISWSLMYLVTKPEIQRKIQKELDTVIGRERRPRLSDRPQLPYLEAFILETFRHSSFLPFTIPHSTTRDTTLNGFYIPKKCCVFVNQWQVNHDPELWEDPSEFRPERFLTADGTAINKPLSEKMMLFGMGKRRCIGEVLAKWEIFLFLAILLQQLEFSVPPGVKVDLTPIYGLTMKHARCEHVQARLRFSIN
# [5] = Oral bioavailability in male Beagle dog at 2 mg/kg measured after 24 hrs by LC-MS/MS analysis; format: ADME, organism-based, Canis lupus familiaris; conditions: in vivo
# [6] = biological target: Cytochrome P450 2C19 (Homo sapiens, UniProt P33261); experiment: Inhibition of CYP2C19 in human liver microsomes using mephenytoin as substrate in presence of NADP by LC-MS/MS analysis; format: ADME, Microsome
# [7] = biological target: Voltage-gated inwardly rectifying potassium channel KCNH2 (Homo sapiens, UniProt Q12809); experiment: Inhibition of human ERG in HEK293 cells; format: toxicity, cell-based
# [8] = Volume of distribution at steady state in male Beagle dog at 1 mg/kg, iv measured after 24 hrs by LC-MS/MS analysis; format: ADME, organism-based, Canis lupus familiaris; conditions: in vivo, read-out: Vdss
# [9] = biological target: Cytochrome P450 3A4 (Homo sapiens, UniProt P08684); experiment: Inhibition of CYP3A4 in human liver microsomes using testosterone as substrate in presence of NADP by LC-MS/MS analysis; format: ADME, Microsome
# [10] = test system: Rattus norvegicus; experiment: Antiarthritic activity in Mycobacterium tuberculosis H37R-induced female Lewis rat model of arthritis at 0.3 mg/kg, po administered twice daily for 15 days starting from day 13 after adjuvant administration; format: functional, organism-based; conditions: time 15.0 day
# [11] = Cmax in female Lewis rat at 1 mg/kg, po measured after 24 hrs by LC-MS/MS analysis; format: ADME, organism-based; conditions: in vivo
# [12] = Half-life in female Lewis rat at 1 mg/kg, po measured after 24 hrs by LC-MS/MS analysis; format: ADME, organism-based; conditions: in vivo
# [13] = Half-life in male Sprague-Dawley rat at 1 mg/kg, iv measured after 24 hrs by LC-MS/MS analysis; format: ADME, organism-based; conditions: in vivo
# [14] = MRT in male Sprague-Dawley rat at 1 mg/kg, iv measured after 24 hrs by LC-MS/MS analysis; format: ADME, organism-based; conditions: in vivo
# Cytochrome P450 2C19, sequence (P33261 whole entry): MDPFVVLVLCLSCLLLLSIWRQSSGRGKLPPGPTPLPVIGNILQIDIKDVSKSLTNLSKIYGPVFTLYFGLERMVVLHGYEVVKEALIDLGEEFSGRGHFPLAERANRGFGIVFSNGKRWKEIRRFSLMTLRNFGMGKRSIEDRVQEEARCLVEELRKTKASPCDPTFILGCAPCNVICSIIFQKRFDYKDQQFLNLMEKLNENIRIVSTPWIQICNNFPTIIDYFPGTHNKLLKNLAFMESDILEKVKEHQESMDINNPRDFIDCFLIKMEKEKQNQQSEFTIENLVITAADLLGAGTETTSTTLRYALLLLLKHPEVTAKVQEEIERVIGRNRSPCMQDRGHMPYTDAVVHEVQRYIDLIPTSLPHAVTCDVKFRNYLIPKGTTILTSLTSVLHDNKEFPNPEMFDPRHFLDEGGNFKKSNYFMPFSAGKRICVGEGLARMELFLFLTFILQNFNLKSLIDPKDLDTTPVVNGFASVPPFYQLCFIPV
# Cytochrome P450 3A4, sequence (P08684 whole entry): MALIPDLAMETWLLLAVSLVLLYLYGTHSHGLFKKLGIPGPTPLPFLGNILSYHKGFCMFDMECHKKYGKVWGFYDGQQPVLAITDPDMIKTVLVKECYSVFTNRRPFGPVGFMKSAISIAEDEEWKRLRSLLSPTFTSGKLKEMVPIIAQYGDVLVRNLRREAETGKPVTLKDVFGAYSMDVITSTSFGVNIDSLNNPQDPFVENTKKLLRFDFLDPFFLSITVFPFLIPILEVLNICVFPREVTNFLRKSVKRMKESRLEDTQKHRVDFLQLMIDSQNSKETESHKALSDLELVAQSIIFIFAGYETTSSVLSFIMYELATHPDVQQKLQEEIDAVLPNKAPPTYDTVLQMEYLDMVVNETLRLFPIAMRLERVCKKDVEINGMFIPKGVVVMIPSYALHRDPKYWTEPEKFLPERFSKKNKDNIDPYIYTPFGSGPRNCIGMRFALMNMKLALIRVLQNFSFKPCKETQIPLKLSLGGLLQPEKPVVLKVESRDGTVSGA
# Voltage-gated inwardly rectifying potassium channel KCNH2, sequence (Q12809 whole entry): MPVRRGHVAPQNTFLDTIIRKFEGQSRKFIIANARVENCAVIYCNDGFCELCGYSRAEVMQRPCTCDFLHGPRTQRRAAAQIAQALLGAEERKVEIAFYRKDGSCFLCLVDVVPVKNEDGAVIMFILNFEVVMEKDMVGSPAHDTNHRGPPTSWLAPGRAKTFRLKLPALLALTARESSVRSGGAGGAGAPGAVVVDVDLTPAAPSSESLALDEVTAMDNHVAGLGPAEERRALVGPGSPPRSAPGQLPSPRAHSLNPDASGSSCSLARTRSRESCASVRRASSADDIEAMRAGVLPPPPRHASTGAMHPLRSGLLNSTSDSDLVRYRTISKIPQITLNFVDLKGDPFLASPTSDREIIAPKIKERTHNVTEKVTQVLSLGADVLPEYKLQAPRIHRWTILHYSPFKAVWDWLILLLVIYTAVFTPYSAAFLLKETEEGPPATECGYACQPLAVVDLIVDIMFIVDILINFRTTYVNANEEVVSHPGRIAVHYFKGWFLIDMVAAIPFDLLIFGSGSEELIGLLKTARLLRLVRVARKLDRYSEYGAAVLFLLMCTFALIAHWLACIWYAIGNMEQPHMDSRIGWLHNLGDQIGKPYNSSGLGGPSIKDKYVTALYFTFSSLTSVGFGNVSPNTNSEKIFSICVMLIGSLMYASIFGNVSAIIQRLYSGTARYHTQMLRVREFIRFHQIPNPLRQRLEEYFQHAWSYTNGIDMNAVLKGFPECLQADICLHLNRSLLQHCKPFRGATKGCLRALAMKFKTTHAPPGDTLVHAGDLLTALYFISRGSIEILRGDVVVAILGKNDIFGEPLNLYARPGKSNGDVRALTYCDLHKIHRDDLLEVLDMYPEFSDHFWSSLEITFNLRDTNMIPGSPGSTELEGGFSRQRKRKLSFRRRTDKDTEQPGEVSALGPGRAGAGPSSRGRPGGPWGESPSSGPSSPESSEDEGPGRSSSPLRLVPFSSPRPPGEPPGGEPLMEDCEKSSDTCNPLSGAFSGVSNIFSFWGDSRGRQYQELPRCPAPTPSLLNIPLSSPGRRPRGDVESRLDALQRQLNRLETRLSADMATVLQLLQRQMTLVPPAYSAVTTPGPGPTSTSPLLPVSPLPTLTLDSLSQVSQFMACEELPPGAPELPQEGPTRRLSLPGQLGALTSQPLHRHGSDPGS
smiles,measurement,setting,value
Cc1cnc(-c2ccnc(C(C)(C)O)n2)c(F)c1-n1c(C)cc(O[C@@H](C)c2ncc(F)cc2F)c(C)c1=O,Activity,[1],Active
same,clearance,[2],4.5 mL/min/kg
same,AUC(0-t) at 24 h,[3],3750 ng·h/mL
same,IC50,[4],> 40 µM
same,bioavailability,[5],68%
same,IC50,[6],> 40 µM
same,IC50,[7],> 30 µM
same,Vd,[8],0.8 L/kg
same,IC50,[9],> 40 µM
same,Activity,[10],Active; Significant Clinical Effect Observed
same,Cmax,[11],299 ng/mL
same,half-life,[12],3.9 h
same,half-life,[13],2.8 h
same,MRT,[14],2.2 h

# From ChEMBL document CHEMBL6096702, “Discovery of a Novel p38α-MK2 Complex Inhibitor as a Potential Choice for Autoimmune Diseases” (J Med Chem, 2025)
